# System: 485368-065-R3-J5-PDC spheroids with HUVEC/MSC, viability
# Assay: Anticancer human tumor 485368-065-R3-J5-PDC patient-derived pancreatic carcinoma cell line growth inhibition [RAS]
# Settings: for IC50: curve of first compound; for viability, T/C: stronger effect = lower value
# Text: RAS pathway inhibitors in Combinations in Complex Spheroids
# A high-throughput screen of multi-cell type tumor spheroids was designed to identify active combinations of RAS pathway inhibitors and targeted small molecules. Complex spheroids include a stromal component modeled by human endothelial cells (HUVEC) and fibroblasts modeled by human mesenchymal stem cells (MSCs). The concentration ranges selected for each drug and investigational agent were based upon clinically achievable concentrations if the clinical Cmax of the agent was known.
# Compounds. The drugs and investigational agents: abemaciclib (NSC768073), cobimetinib (NSC768068), divarasib (GDC6063, NSC841802), docetaxel (NSC628503), GDC-1971 (RLY-1971, NSC841576), gemcitabine (NSC613327), inavolisib (NSC800729), ipatasertib (NSC767898), KB-0742 (NSC834161), MRTX-1133 (NSC836407), osimertinib (NSC779217), RMC-4630 (NSC839698), RMC-6236 (NSC851965), RMC-6291 (NSC852671), Ro-3306 (NSC812927), sapanisertib (NSC764658), SN-38 (NSC673596), staurosporine (NSC755774), SY5609 (NSC837396), and tovorafenib (DAY101, NSC766906), were obtained from the National Cancer Institute (NCI) Developmental Therapeutics Program Chemical Repository. The FDA-approved anticancer drug set is available from the NCI Developmental Therapeutics Program. […] The stock solutions were prepared in dimethyl sulfoxide (DMSO, Sigma-Aldrich, St. Louis, MO, cat. D2650) at 800-fold the tested concentration and stored at -70 degrees C prior to their use. All drugs and investigational agents were tested over a range starting from a high concentration at or near the clinical Cmax and decreasing in half-log increments. If the clinical Cmax for an agent had not been determined, the highest concentration tested was 10 microM.
# Cell Culture. All cells were maintained in an incubator at 37 degrees C and 5% CO2 with 95% humidity. The PDC lines were cultured according to standard operating procedures established by the NCI PDMR. All PDCs were thawed and cultured in Matrigel-coated flasks prepared with a working solution of 1X Ham's F-12 nutrient mix, without supplementation (Invitrogen, Waltham, MA, cat. 11765054), 100 U/mL penicillin-streptomycin (Invitrogen, cat. 15140122), and 2.5% Matrigel (Corning Inc., Corning, NY, cat. 354248) for the first three passages. The 362531-283-R-J2-PDC and 782815-120-R-J1-PDC lines were cultured in 6C/Colon 1B media, which includes advanced DMEM/F-12 (Thermo Fisher Scientific, cat. 12634028), 10 mM HEPES (Thermo Fisher Scientific, cat. 15630080), 1X GlutaMAX supplement (Thermo Fisher Scientific, cat. 35050061), 0.1 mg/mL primocin (InvivoGen, San Diego, CA, cat. ant-pm-2), 10% defined fetal bovine serum, heat inactivated (HyClone Laboratories Inc., Logan, UT, cat. SH30070.03HI), 50% L-WRN conditioned media (ATCC, cat. CRL-3276), 1.25 mM N-Acetyl-L-cysteine (Sigma-Aldrich, cat. A9165), 10 mM nicotinamide (Sigma-Aldrich, cat. N0636), 1X B-27 supplement (Thermo Fisher Scientific, cat. 17504044), 1X N-2 supplement (Thermo Fisher Scientific, cat. 17502048), 50 ng/mL human EGF (Thermo Fisher Scientific, cat. PHG0311), and 10 microM Y-27632 dihydrochloride (Tocris Bioscience, cat. 1254). The K12877-001-R-J1-PDC line was cultured in 6I media, which includes all 6C/Colon 1B media plus 10 ng/mL human FGF-10 (PeproTech, cat. 100-26), 1 ng/mL human FGF-2 (PeproTech, cat. 100-18B), 1 µM prostaglandin E2 (Tocris Bioscience, cat. 2296), […] hydrocortisone (Sigma-Aldrich, cat. H4001), and […] bovine insulin (Sigma-Aldrich, cat. I6634). The K86415-001-R-J1-PDC line was cultured in 6D media, which includes all 6C/Colon 1B media components minus the L-WRN conditioned media. The 485176-168-R4-J1-PDC was cultured in PANC media, which includes all 6C/Colon 1B media plus 100 ng/mL human FGF-10 (PeproTech, cat. 100-26), 500 nM SB-431542 (Selleckchem, cat. S1067), and 10 nM gastrin (Tocris Bioscience, cat. 3006). […]
# 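Note: spheroids exposed to agents for seven days before readout.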
structure (smiles),measurement,setting,value
CC(C)NCC(C(=O)N1CCN(c2ncnc3c2C(C)CC3O)CC1)c1ccc(Cl)cc1 (configuration not stated) + C#Cc1c(F)ccc2cc(O)cc(-c3ncc4c(N5CC6CCC(C5)N6)nc(OCC56CCCN5CC(F)C6)nc4c3F)c12,IC50,second compound 0.0316 µM,> 10 µM
same,IC50,second compound 0.1 µM,> 10 µM
same,IC50,second compound 0.316 µM,> 10 µM
same,IC50,second compound 1 µM,8.24 µM
same,IC50,second compound 3.16 µM,4.34 µM
same,IC50,second compound 10 µM,< 0.0316 µM
same,"viability, T/C","second compound 0.0316 µM, first compound 0.0316 µM",116%
same,"viability, T/C","second compound 0.0316 µM, first compound 0.1 µM",98.7%
same,"viability, T/C","second compound 0.0316 µM, first compound 0.316 µM",89.3%
same,"viability, T/C","second compound 0.0316 µM, first compound 1 µM",93.5%
same,"viability, T/C","second compound 0.0316 µM, first compound 3.16 µM",77.1%
same,"viability, T/C","second compound 0.0316 µM, first compound 10 µM",57.8%
same,"viability, T/C","second compound 0.1 µM, first compound 0.0316 µM",101%
same,"viability, T/C","second compound 0.1 µM, first compound 0.1 µM",88.8%
same,"viability, T/C","second compound 0.1 µM, first compound 0.316 µM",90.3%
same,"viability, T/C","second compound 0.1 µM, first compound 1 µM",83.3%
same,"viability, T/C","second compound 0.1 µM, first compound 3.16 µM",77.2%
same,"viability, T/C","second compound 0.1 µM, first compound 10 µM",57.9%
same,"viability, T/C","second compound 0.316 µM, first compound 0.0316 µM",99%
same,"viability, T/C","second compound 0.316 µM, first compound 0.1 µM",101%
same,"viability, T/C","second compound 0.316 µM, first compound 0.316 µM",93.9%
same,"viability, T/C","second compound 0.316 µM, first compound 1 µM",87.9%
same,"viability, T/C","second compound 0.316 µM, first compound 3.16 µM",71.2%
same,"viability, T/C","second compound 0.316 µM, first compound 10 µM",55%
same,"viability, T/C","second compound 1 µM, first compound 0.0316 µM",104%
same,"viability, T/C","second compound 1 µM, first compound 0.1 µM",106%
same,"viability, T/C","second compound 1 µM, first compound 0.316 µM",93.5%
same,"viability, T/C","second compound 1 µM, first compound 1 µM",74.9%
same,"viability, T/C","second compound 1 µM, first compound 3.16 µM",61.9%
same,"viability, T/C","second compound 1 µM, first compound 10 µM",47%
same,"viability, T/C","second compound 3.16 µM, first compound 0.0316 µM",73.7%
same,"viability, T/C","second compound 3.16 µM, first compound 0.1 µM",74%
same,"viability, T/C","second compound 3.16 µM, first compound 0.316 µM",75.2%
same,"viability, T/C","second compound 3.16 µM, first compound 1 µM",70.8%
same,"viability, T/C","second compound 3.16 µM, first compound 3.16 µM",54.2%
same,"viability, T/C","second compound 3.16 µM, first compound 10 µM",38.9%
same,"viability, T/C","second compound 10 µM, first compound 0.0316 µM",44.1%
same,"viability, T/C","second compound 10 µM, first compound 0.1 µM",39.4%
same,"viability, T/C","second compound 10 µM, first compound 0.316 µM",40.3%
same,"viability, T/C","second compound 10 µM, first compound 1 µM",35.4%
same,"viability, T/C","second compound 10 µM, first compound 3.16 µM",35.3%
same,"viability, T/C","second compound 10 µM, first compound 10 µM",26.9%

# Source: PubChem BioAssay AID2060902 (Molecular Pharmacology Branch, DTP, NCI, 2025)
